This passage reports IC50 results from patent publication US8822467B2 (Ligand Pharmaceuticals Inc., priority 2009, dated 2014).

The target in the first assay is T1, human CRTH2 (Homo sapiens, UniProt Q9Y5Y4).
T1 construct: expressed in transfected cells
T1 sequence (Q9Y5Y4 1-395): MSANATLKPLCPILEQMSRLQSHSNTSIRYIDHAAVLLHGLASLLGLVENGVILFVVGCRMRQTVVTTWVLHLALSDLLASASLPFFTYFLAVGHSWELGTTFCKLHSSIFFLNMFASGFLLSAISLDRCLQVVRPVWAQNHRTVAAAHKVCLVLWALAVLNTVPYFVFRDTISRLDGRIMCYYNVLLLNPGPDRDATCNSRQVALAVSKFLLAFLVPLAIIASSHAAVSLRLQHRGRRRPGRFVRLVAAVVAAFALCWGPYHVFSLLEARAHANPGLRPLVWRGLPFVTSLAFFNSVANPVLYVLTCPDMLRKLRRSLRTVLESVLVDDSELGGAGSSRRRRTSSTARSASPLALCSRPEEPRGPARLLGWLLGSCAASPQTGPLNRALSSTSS
As to the kind of experiment: [35S]GTPγS binding assay (SPA) on membranes from CHO-K1 cells stably expressing human CRTH2, stimulated with 60 nM DHK-PGD2. Type of assay: biochemical. Conditions: membranes of CHO-K1 cells expressing human CRTH2; 60 nM DHK-PGD2; Table 1; read-out: CRTH2 hGTPγS IC50. The gist of the method: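 Membranes (4 μg) from CHO-K1 cells stably expressing human CRTH2 were incubated with compounds, 60 nM DHK-PGD2, 500 pM [35S]GTPγS and 10 μM GDP plus WGA SPA beads. Buffer was 20 mM HEPES pH 7.4, 10 mM MgCl2, 300 mM NaCl, 0.2% BSA, with 1% DMSO. Incubation ran 2 h at ambient temperature, with SPA scintillation read 4 h after centrifugation.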
Turning to `CN(Cc1ccc(OCC(=O)O)c(-c2cc(F)cc(C#N)c2)c1)S(=O)(=O)c1ccc(Cl)c(Cl)c1` [Example 38, 2-(3-cyano-5-fluorophenyl)-4-((3,4-dichloro-N-methylphenylsulfonamido)methyl)phenoxyacetic acid], the IC50 is 0.7 nM.

For the molecule `O=C(O)COc1ccc(CNS(=O)(=O)c2ccc(F)cc2)cc1-c1cccc(C(F)(F)F)c1` [Example 110], the IC50 worked out at 169 nM.

Regarding `N#Cc1cc(F)cc(-c2cc(CNS(=O)(=O)c3ccc(F)c(F)c3)ccc2OCC(=O)O)c1` [Example 194, 2-(3-cyano-5-fluorophenyl)-4-((3,4-difluorophenylsulfonamido)methyl)phenoxyacetic acid], the IC50 amounted to 15 nM.

The assay is the same for the next values; noted with them: potency class symbols; Table 2; read-out: CRTH2 hGTPγS IC50.
`CN(Cc1ccc(OCC(=O)O)c(-c2cc(F)cc(F)c2)c1)S(=O)(=O)c1ccc(F)cc1` [Example 106, 2-(3,5-difluorophenyl)-4-((4-fluoro-N-methylphenylsulfonamido)methyl)phenoxyacetic acid]: the half-inhibitory concentration (IC50) lay in the range of 100 to 1000 nM.

`CN(Cc1ccc(OCC(=O)O)c(-c2cnccn2)c1)S(=O)(=O)c1ccc(F)cc1` [Example 155, 2-(pyrazinyl)-4-((4-fluoro-N-methylphenylsulfonamido)methyl)phenoxyacetic acid]: the IC50 fell in the range of 1000 to 10000 nM.

As to `CN(Cc1ccc(OCC(=O)O)c(-c2ccc(S(C)(=O)=O)cc2)c1)S(=O)(=O)c1ccc(F)cc1` [Example 124, 2-(4-methylsulfonylphenyl)-4-((4-fluoro-N-methylphenylsulfonamido)methyl)phenoxyacetic acid], the IC50 was in the range of 100 to 1000 nM.

As to `CN(Cc1ccc(OCC(=O)O)c(-c2cc(F)cc(C#N)c2)c1)S(=O)(=O)c1ccc(Cl)c(Cl)c1` [Example 38, 2-(3-cyano-5-fluorophenyl)-4-((3,4-dichloro-N-methylphenylsulfonamido)methyl)phenoxyacetic acid], the IC50 was less than 100 nM.

`Cc1cc(S(=O)(=O)N(C)Cc2ccc(OCC(=O)O)c(-c3cc(F)cc(F)c3)c2)ccc1F` [Example 82, 2-(3,5-difluorophenyl)-4-((3-methyl-4-fluoro-N-methylphenylsulfonamido)methyl)phenoxyacetic acid]: the IC50 was less than 100 nM.

For the molecule `CN(Cc1ccc(OCC(=O)O)c(-c2cccc(C(F)(F)F)n2)c1)S(=O)(=O)c1ccc(F)cc1` [Example 127, 2-(6-trifluoromethyl-2-pyridinyl)-4-((4-fluoro-N-methylphenylsulfonamido)methyl)phenoxyacetic acid], the concentration for half-maximal inhibition (IC50) is 100 to 1000 nM.

Turning to `O=C(O)COc1ccc(CNS(=O)(=O)c2ccc(F)cc2)cc1-c1cccc(C(F)(F)F)c1` [Example 110], the IC50 lay within 100 to 1000 nM.

Regarding `CN(Cc1ccc(OCC(=O)O)c(-c2cccc(OC(F)(F)F)c2)c1)S(=O)(=O)c1ccc(F)cc1` [Example 125, 2-(3-trifluoromethoxyphenyl)-4-((4-fluoro-N-methylphenylsulfonamido)methyl)phenoxyacetic acid], the half-maximal inhibitory concentration (IC50) was in the range of 100 to 1000 nM.

On to `C[C@H](Oc1ccc(CN(C)S(=O)(=O)c2ccc(F)cc2)cc1-c1cccc(C(F)(F)F)c1)C(=O)O` [Example 36, (S)-2-(2-(3-trifluoromethylphenyl)-4-((4-fluoro-N-methylphenylsulfonamido)methyl)phenoxy)propanoic acid], for which the concentration for half-maximal inhibition (IC50) was in the range of 100 to 1000 nM.

On to `CN(Cc1ccc(OCC(=O)O)c(-c2cc(F)ccc2F)c1)S(=O)(=O)c1ccccc1` [Example 166, 2-(2,5-difluorophenyl)-4-((N-methylphenylsulfonamido)methyl)phenoxyacetic acid], for which the half-maximal inhibitory concentration (IC50) was in the range of 1000 to 10000 nM.

In the case of `CN(Cc1cc(-c2cccc(C#N)c2)c(OCC(=O)O)cc1F)S(=O)(=O)c1ccc(F)cc1` [Example 77, 2-(3-cyanophenyl)-4-((4-fluoro-N-methylphenylsulfonamido)methyl)-5-fluorophenoxyacetic acid], the IC50 is less than 100 nM.

As for `CN(Cc1ccc(OC(C)(C)C(=O)O)c(-c2cccc(C(F)(F)F)c2)c1)S(=O)(=O)c1ccc(F)cc1` [Example 34, 2-(2-(3-trifluoromethylphenyl)-4-((4-fluoro-N-methylphenylsulfonamido)methyl)phenoxy)-2-methylpropanoic acid], the 50% inhibitory concentration (IC50) was 1000 to 10000 nM.

As to `CN(Cc1ccc(OCC(=O)O)c(-c2cc(F)cc(C#N)c2)c1)S(=O)(=O)c1cc(F)cc(F)c1` [Example 76, 2-(3-cyano-5-fluorophenyl)-4-((3,5-difluoro-N-methylphenylsulfonamido)methyl)phenoxyacetic acid], the concentration for half-maximal inhibition (IC50) was less than 100 nM.

In the case of `Cc1cccc(-c2cc(CN(C)S(=O)(=O)c3ccc(F)cc3)ccc2OCC(=O)O)c1` [Example 156, 2-(3-methylphenyl)-4-((4-fluoro-N-methylphenylsulfonamido)methyl)phenoxyacetic acid], the IC50 was in the range of 1000 to 10000 nM.

As to `CN(Cc1ccc(OCC(=O)O)c(-c2cccc3ncccc23)c1)S(=O)(=O)c1ccc(F)cc1` [Example 180, 2-(quinolin-5-yl)-4-((4-fluoro-N-methylphenylsulfonamido)methyl)phenoxyacetic acid], the IC50 lay in the range of 1000 to 10000 nM.

For `COc1ccccc1S(=O)(=O)N(C)Cc1ccc(OCC(=O)O)c(-c2cccc(C(F)(F)F)c2)c1` [Example 146, 2-(3-trifluoromethylphenyl)-4-((2-methoxy-N-methylphenylsulfonamido)methyl)phenoxyacetic acid], the half-inhibitory concentration (IC50) was in the range of 100 to 1000 nM.

As to `CN(Cc1ccc(OCC(=O)O)c(-c2cccc(Cl)c2)c1)S(=O)(=O)c1ccccc1` [Example 167, 2-(3-chlorophenyl)-4-((N-methylphenylsulfonamido)methyl)phenoxyacetic acid], the IC50 was 1000 to 10000 nM.

Turning to `CN(Cc1cc(-c2cc(F)cc(C#N)c2)c(OCC(=O)O)cc1Cl)S(=O)(=O)c1ccc(F)cc1` [Example 213, 2-(3-cyano-5-fluoro-phenyl)-4-((4-fluoro-N-methylphenylsulfonamido)methyl)-5-chlorophenoxyacetic acid], the IC50 was less than 100 nM.

For the molecule `CN(Cc1ccc(OCC(=O)O)c(-c2cccc(S(C)(=O)=O)c2)c1)S(=O)(=O)c1ccc(F)c(F)c1` [Example 47, 2-(3-methylsulfonylphenyl)-4-((3,4-difluoro-N-methylphenylsulfonamido)methyl)phenoxyacetic acid], the IC50 is less than 100 nM.

Take `CN(Cc1cc(-c2cc(F)cc(C#N)c2)c(OCC(=O)O)cc1F)S(=O)(=O)c1ccc(F)c(Cl)c1` [Example 209, 2-(3-cyano-5-fluoro-phenyl)-4-((3-chloro-4-fluoro-N-methylphenylsulfonamido)methyl)-5-fluorophenoxyacetic acid]: the IC50 was less than 100 nM.

As to `CN(Cc1ccc(OCC(=O)O)c(-c2cccc(C(F)(F)F)c2)c1)S(=O)(=O)c1ccc2ccccc2c1` [Example 148, 2-(3-trifluoromethylphenyl)-4-((N-methylnaphthalene-2-sulfonamido)methyl)phenoxyacetic acid], the IC50 was in the range of 100 to 1000 nM.

For `N#Cc1cc(F)cc(-c2cc(CNS(=O)(=O)c3ccc(F)c(F)c3)ccc2OCC(=O)O)c1` [Example 194, 2-(3-cyano-5-fluorophenyl)-4-((3,4-difluorophenylsulfonamido)methyl)phenoxyacetic acid], the IC50 was less than 100 nM.

Regarding `CN(Cc1ccc(OCC(=O)O)c(-c2ccn3ccnc3c2)c1)S(=O)(=O)c1ccc(F)cc1` [Example 128, 2-(imidazo[1,2-a]pyridin-7-yl)-4-((4-fluoro-N-methylphenylsulfonamido)methyl)phenoxyacetic acid], the IC50 was in the range of 100 to 1000 nM.

For `COc1ccc(S(=O)(=O)N(C)Cc2ccc(OCC(=O)O)c(-c3cccc(C(F)(F)F)c3)c2)cc1` [Example 121, 2-(3-trifluoromethylphenyl)-4-((4-methoxy-N-methylphenylsulfonamido)methyl)phenoxyacetic acid], the IC50 lay in the range of 100 to 1000 nM.

As to `CN(Cc1ccc(OCC(=O)O)c(-c2cncnc2)c1)S(=O)(=O)c1ccccc1` [Example 172, 2-(pyrimidin-5-yl)-4-((N-methylphenylsulfonamido)methyl)phenoxyacetic acid], the IC50 lay in the range of 1000 to 10000 nM.

One may read the IC50 as the concentration that gives 50% inhibition.
